Assay results taken from US7498343B2, “Mycobacterial inhibitors” (priority 2002, dated 2009).
Values after ≈ are worked out from the molar mass of the structure shown. Like-named read-outs stand apart in the source and are kept apart here.

Key:
[1] = system: Mycobacterium tuberculosis (strain H37RV); experiment: In-vitro method for testing compounds against M. tuberculosis (resazurin growth inhibition, MIC); assay type: cell-based; conditions: MIC data representing IC90's, 7 days incubation, resazurin fluorescence
[2] = system: M. Smegmatis ATCC607; experiment: In-vitro method for testing compounds for anti-bacterial activity against strain M. smegmatis ATCC607 (Alamar Blue growth inhibition); assay type: cell-based; conditions: pIC50 = -logIC50, IC50 in M, 50% inhibitory concentration for bacterial growth, 48 hours incubation; for pIC50: M. smegmatis ATCC607
Outline: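 About 250 CFU/well M. smegmatis ATCC607 in Mueller-Hinton broth exposed to five-fold serial compound dilutions, 48 h at 37 °C, humidified 5% CO2. Growth read by Alamar Blue fluorescence (ex 530/em 590 nm) after 2 h further incubation; % growth inhibition calculated.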

[3] = Mycobacterium tuberculosis, H37RV, 168 h, read-out: MIC

SMILES | MIC [1] [microgram/ml] | pIC50 [2] | MIC [1, 3] [µg/mL] | IC50 ([2]; Mycolicibacterium smegmatis, ATCC607, 48 h, read-out: pIC50, M. smegmatis ATCC607 (converted)) [nM]
COc1nc2ccc(Br)cc2cc1C(c1ccccc1)C(O)(CCn1cncn1)c1ccccc1 (racemic) [Compound 54] | 52.94 | 4.1 | – | –
COc1nc2cccc(Br)c2cc1C(c1ccccc1)C(O)(CCN(C)C)c1cccc2ccccc12 (single isomer, unassigned) [Compound 221] | 44.13 | 6.5 | – | –
COc1nc2ccc(Br)cc2cc1C(c1ccccc1)C(O)(CCN1CCCCC1)c1ccccc1 (stereo not shown) [Compound 47] | – | 6.5 | 8.65 (≈ 15.9 µM) | –
COc1nc2ccc(Br)cc2cc1C(c1ccccc1)C(O)(CCN(C)C)c1cc(F)cc(F)c1 (stereo not shown) [Compound 118] | 0.01 | 9.1 | – | –
COc1nc2ccc(Br)cc2cc1C(c1ccccc1)C(O)(CCn1ccnc1)c1ccccc1 (stereo not shown) [Compound 49] | – | 5.4 | 52.9 (≈ 100 µM) | –
COc1nc2ccc(Br)cc2cc1[C@@H](c1ccccc1)[C@@](O)(CCN(C)C)c1cccc2ccccc12 [Compound 12, (1R,2S) 1-(6-bromo-2-methoxy-quinolin-3-yl)-4-dimethylamino-2-naphthalen-1-yl-1-phenyl-butan-2-ol] | – | – | 0.07 (≈ 0.126 µM) | 2
COc1nc2ccc(Br)cc2cc1C(c1ccccc1)C(O)(CCN1CCCCC1)c1ccc2cc(Br)ccc2c1 (stereo not shown) [Compound 155] | – | 4.9 | 67.5 (≈ 100 µM) | –
COc1nc2c(C)cc(Br)cc2cc1C(c1ccccc1)C(O)(CCN(C)C)c1cccc(F)c1 (single isomer, unassigned) [Compound 219] | 42.69 | 5.8 | – | –
COc1nc2ccc(Br)cc2cc1C(c1ccccc1)C(O)(CCCN(C)C)c1ccccc1 (single isomer, unassigned) [Compound 64] | 6.54 | 5.8 | – | –
COc1nc2ccc(Br)cc2cc1C(c1ccccc1)C(O)(CCN(C)C)c1ccc2c(c1)OCO2 (racemic) [Compound 75] | 1.74 | 7.9 | – | –
COc1nc2ccc(Br)cc2cc1C(c1ccccc1)C(O)(CCN(C)C)c1cccs1 (single isomer, unassigned) [Compound 21] | 16.17 | 5.4 | – | –
COc1nc2ccc(Br)cc2cc1C(c1ccccc1)C(O)(CCN1CCN(C)CC1)c1ccc2ccccc2c1 (racemic) [Compound 137] | 42.23 | 4.6 | – | –
COc1nc2ccc(Br)cc2cc1C(c1ccccc1)C(O)(CCN1CCCCC1)c1ccc2ccccc2c1 (stereo not shown) [Compound 129] | – | 4.7 | 47.3 (≈ 79.4 µM) | –
CN(C)CCC(O)(c1ccccc1)C(c1ccccc1)c1cc2cc(Br)ccc2n(C)c1=O (single isomer, unassigned) [Compound 106] | 55.55 | 6.2 | – | –
COCCOc1nc2ccc(Br)cc2cc1C(c1ccccc1)C(O)(CCN(C)C)c1cccc(F)c1 (single isomer, unassigned) [Compound 165] | 2.26 | 6.6 | – | –
COc1nc2cc(C)c(Br)cc2cc1C(c1ccccc1)C(O)(CCN(C)C)c1cccc2ccccc12 (single isomer, unassigned) [Compound 226] | 9.03 | 5.5 | – | –
COCCOc1nc2ccc(Br)cc2cc1C(c1ccccc1)C(O)(CCN(C)C)c1cccc(F)c1 (single isomer, unassigned) [Compound 164] | 0.36 | 7.9 | – | –
COc1nc2ccc(Br)cc2cc1C(c1ccccc1)C(O)(CCCCN(C)C)c1ccc2ccccc2c1 (single isomer, unassigned) [Compound 190] | 1.85 | 6.5 | – | –

SMILES | MIC [1] [microgram/ml] | pIC50 [2] | MIC [1, 3] [µg/mL] | IC50 ([2]; Mycolicibacterium smegmatis, ATCC607, 48 h, read-out: pIC50, M. smegmatis ATCC607 (converted)) [nM]
COc1nc2ccc(Cl)cc2cc1C(c1ccccc1)C(O)(CCN(C)C)c1cccc2ccccc12 (single isomer, unassigned) [Compound 119] | 10.20 | 7.8 | – | –
COc1nc2ccc(Br)cc2cc1C(c1ccccc1)C(O)(CCN(C)C)C1CCN(C(=O)c2ccccc2)CC1 (single isomer, unassigned) [Compound 202] | 48.98 | 4.8 | – | –
COc1nc2ccc(Br)cc2cc1C(c1ccccc1)C(O)(CCN1CCN(C)CC1)c1cc(Br)cc2ccccc12 (single isomer, unassigned) [Compound 151] | 13.76 | 5.0 | – | –
COc1nc2ccccc2cc1C(c1ccccc1)C(C)(O)CCN(C)C (single isomer, unassigned) [Compound 42] | 44.34 | 6.3 | – | –
CSc1nc2ccc(Br)cc2cc1C(c1ccccc1)C(O)(CCN(C)C)c1cccc2ccccc12 (racemic) [Compound 88] | 45.40 | 6.8 | – | –
COc1nc2ccc(Br)cc2cc1C(c1ccccc1)C(O)(CCN1CCN(C)CC1)c1cccc2ccccc12 (single isomer, unassigned) [Compound 149] | 48.50 | 5.1 | – | –
COc1nc2ccc(Br)cc2cc1C(c1ccccc1)C(O)(CCN(C)C)c1cccc(C(F)(F)F)c1 (single isomer, unassigned) [Compound 183] | 0.36 | 8.3 | – | –
COc1nc2ccc(Br)cc2cc1C(c1ccccc1)C(O)(CCN1CCN(C)CC1)c1cccc2ccccc12 (single isomer, unassigned) [Compound 156] | 9.68 | 5.3 | – | –
COc1nc2ccc(Br)cc2cc1C(c1ccccc1)C(O)(CCN1CCCCC1)c1cccc2ccccc12 (stereo not shown) [Compound 146] | 59.56 | 4.8 | – | –
COc1nc2ccc(-c3ccccc3)cc2cc1C(c1ccccc1)C(O)(CCN(C)C)c1ccccc1 (single isomer, unassigned) [Compound 26] | 1.00 | 7.2 | – | –
COc1nc2ccc(Br)cc2cc1C(c1ccccc1)C(O)(CCN(C)C)c1ccc(N2CCOCC2)cc1 (racemic) [Compound 90] | 59.06 | 5.3 | – | –
COc1ccc2nc(OC)c(C(c3ccccc3)C(O)(CCN(C)C)c3ccccc3)cc2c1 (single isomer, unassigned) [Compound 35] | 1.82 | 6.8 | – | –
CSc1nc2ccc(Br)cc2cc1C(c1ccccc1)C(O)(CCN(C)C)c1ccccc1 (single isomer, unassigned) [Compound 33] | 8.27 | 6.0 | – | –
COc1nc2ccc(Cl)cc2cc1C(c1ccccc1)C(O)(CCN(C)C)c1ccccc1 (single isomer, unassigned) [Compound 31] | 7.31 | 5.8 | – | –
COc1nc2ccc(Br)cc2cc1C(c1ccccc1)C(O)(CCN(C)C)c1cccnc1 (racemic) [Compound 86] | 16.02 | 6.9 | – | –
COc1nc2ccc(Br)cc2cc1C(c1ccccc1)C(O)(CCCN(C)C)c1ccc2ccccc2c1 (single isomer, unassigned) [Compound 125] | 18.01 | 4.4 | – | –
COc1nc2ccc(Br)cc2cc1C(c1ccccc1)C(O)(CCN(C)C)c1ccc(Cl)cc1 (single isomer, unassigned) [Compound 17] | 1.71 | 6.5 | – | –
